{"source": "patent US4746349A", "about": "“Method and compositions for suppressing the nitrification of ammonium in plant growth medium” (American Cyanamid Company, priority 1986, dated 1988)", "key": {"[1]": {"tested_on": "Nitrosomonas spp.", "assay": "Nitrification of ammonium in soil incubated at 25° C. (ammonium recovery, nitrate accumulation)", "conditions": "soil 25° C.; for Concentration of nitrate nitrogen / Recovery of Ammonium Nitrogen: 200 ppm N", "method": "In these evaluations, one hundred grams (100 g) of oven dry, silt loam field soil with low residual nitrogen is added to a 6×12 cm screw-capped glass jar for each sampling date to provide an optimum environment for nitrification.\nTwo replicates of each treatment-sampling date are established. The soil is adjusted to 50% water saturation with an aqueous solution of ammonium sulfate at 200 ppm N and the chemical to be tested as a nitrification inhibitor at rates of from 0.10 to 0.50 ppm.\nIncubation is at either 25° C. or 38° C. for 0, 1, 2, 4, 7, 9, 12, 16 or 20 weeks. Inorganic N is extracted by adding 2M KCl (10:1 v/w) and shaking for one hour, allowing settling for fifteen minutes. A 10 ml aliquot from the supernatant is assayed for ammonium, nitrite and nitrate by standard steam distillation methods (AOAC, pp. 653-655). Nitrapyrin (0.5 ppm) is used as a nitrification inhibitor for comparison. Benzyl alcohol, acetone, and a non-N amended soil are run as controls and as a check on mineralization.\nNitrification: Ammonium recovery and nitrate accumulation are indicative of nitrification, and data obtained with test compounds are reported in Tables I and II."}, "[2]": {"tested_on": "Nitrobacter spp.", "assay": "Nitrite nitrogen in ammonium amended soil incubated at 25° C.", "conditions": "soil 25° C., 200 ppm N", "method": "Determination of nitrite nitrogen and nitrate nitrogen in soil prepared in Example 1 above, which is amended with 200 ppm of nitrogen as aqueous ammonium sulfate, […], is determined using the nitrite and nitrate analysis of the American Organization of Analytical Chemists (AOAC pp. 653-655)."}}, "note": "Where a name gives a salt, the structure may show the parent alone."}
{"smiles": "CC[C@@H](C(=O)[C@@H](C)[C@@H](O)[C@H](C)[C@@H]1O[C@@H]([C@@H](CC)C(=O)O)CC[C@@H]1C)[C@H]1O[C@]2(C=C[C@@H](O)[C@]3(CC[C@@](C)([C@H]4CC[C@](O)(CC)[C@H](C)O4)O3)O2)[C@H](C)C[C@@H]1C", "note": "[Salinomycin monosodium salt, Salinomycin]", "values": [{"measurement": "Concentration of nitrate nitrogen", "setting": "[1]; 0.10 ppm, week 0", "result": 18, "unit": "PPM"}, {"measurement": "Recovery of Ammonium Nitrogen", "setting": "[1]; 0.10 ppm, week 0", "result": 194, "unit": "PPM"}, {"measurement": "Concentration of nitrate nitrogen", "setting": "[1]; 0.10 ppm, week 1", "result": 20, "unit": "PPM"}, {"measurement": "Recovery of Ammonium Nitrogen", "setting": "[1]; 0.10 ppm, week 1", "result": 171, "unit": "PPM"}, {"measurement": "Concentration of nitrate nitrogen", "setting": "[1]; 0.10 ppm, week 2", "result": 20, "unit": "PPM"}, {"measurement": "Recovery of Ammonium Nitrogen", "setting": "[1]; 0.10 ppm, week 2", "result": 183, "unit": "PPM"}, {"measurement": "Concentration of nitrate nitrogen", "setting": "[1]; 0.10 ppm, week 4", "result": 26, "unit": "PPM"}, {"measurement": "Recovery of Ammonium Nitrogen", "setting": "[1]; 0.10 ppm, week 4", "result": 184, "unit": "PPM"}, {"measurement": "Concentration of nitrate nitrogen", "setting": "[1]; 0.10 ppm, week 7", "result": 27, "unit": "PPM"}, {"measurement": "Recovery of Ammonium Nitrogen", "setting": "[1]; 0.10 ppm, week 7", "result": 136, "unit": "PPM"}, {"measurement": "Concentration of nitrate nitrogen", "setting": "[1]; 0.10 ppm, week 9", "result": 201, "unit": "PPM"}, {"measurement": "Recovery of Ammonium Nitrogen", "setting": "[1]; 0.10 ppm, week 9", "result": 3, "unit": "PPM"}, {"measurement": "Concentration of nitrate nitrogen", "setting": "[1]; 0.10 ppm, week 12", "result": 219, "unit": "PPM"}, {"measurement": "Recovery of Ammonium Nitrogen", "setting": "[1]; 0.10 ppm, week 12", "result": 10, "unit": "PPM"}, {"measurement": "Concentration of nitrate nitrogen", "setting": "[1]; 0.10 ppm, week 16", "result": 233, "unit": "PPM"}, {"measurement": "Recovery of Ammonium Nitrogen", "setting": "[1]; 0.10 ppm, week 16", "result": 5, "unit": "PPM"}, {"measurement": "Recovery of Ammonium Nitrogen", "setting": "[1]; 0.10 ppm, week 20", "result": 0, "unit": "PPM"}, {"measurement": "Specific inhibition of nitrification through activity against Nitrosomonas spp., in words", "setting": "[1]; 0.1 to 0.5 ppm", "result": "appear to specifically inhibit nitrification through activity against Nitrosomonas spp."}, {"measurement": "Concentration of nitrate nitrogen", "setting": "[1]; 0.25 ppm, week 0", "result": 19, "unit": "PPM"}, {"measurement": "Recovery of Ammonium Nitrogen", "setting": "[1]; 0.25 ppm, week 0", "result": 193, "unit": "PPM"}, {"measurement": "Concentration of nitrate nitrogen", "setting": "[1]; 0.25 ppm, week 1", "result": 23, "unit": "PPM"}, {"measurement": "Recovery of Ammonium Nitrogen", "setting": "[1]; 0.25 ppm, week 1", "result": 176, "unit": "PPM"}, {"measurement": "Concentration of nitrate nitrogen", "setting": "[1]; 0.25 ppm, week 2", "result": 22, "unit": "PPM"}, {"measurement": "Recovery of Ammonium Nitrogen", "setting": "[1]; 0.25 ppm, week 2", "result": 189, "unit": "PPM"}, {"measurement": "Concentration of nitrate nitrogen", "setting": "[1]; 0.25 ppm, week 4", "result": 23, "unit": "PPM"}, {"measurement": "Recovery of Ammonium Nitrogen", "setting": "[1]; 0.25 ppm, week 4", "result": 185, "unit": "PPM"}, {"measurement": "Concentration of nitrate nitrogen", "setting": "[1]; 0.25 ppm, week 7", "result": 45, "unit": "PPM"}, {"measurement": "Recovery of Ammonium Nitrogen", "setting": "[1]; 0.25 ppm, week 7", "result": 167, "unit": "PPM"}, {"measurement": "Concentration of nitrate nitrogen", "setting": "[1]; 0.25 ppm, week 9", "result": 44, "unit": "PPM"}, {"measurement": "Recovery of Ammonium Nitrogen", "setting": "[1]; 0.25 ppm, week 9", "result": 171, "unit": "PPM"}, {"measurement": "Concentration of nitrate nitrogen", "setting": "[1]; 0.25 ppm, week 12", "result": 57, "unit": "PPM"}, {"measurement": "Recovery of Ammonium Nitrogen", "setting": "[1]; 0.25 ppm, week 12", "result": 168, "unit": "PPM"}, {"measurement": "Concentration of nitrate nitrogen", "setting": "[1]; 0.25 ppm, week 16", "result": 121, "unit": "PPM"}, {"measurement": "Recovery of Ammonium Nitrogen", "setting": "[1]; 0.25 ppm, week 16", "result": 111, "unit": "PPM"}, {"measurement": "Concentration of nitrate nitrogen", "setting": "[1]; 0.25 ppm, week 20", "result": 187, "unit": "PPM"}, {"measurement": "Recovery of Ammonium Nitrogen", "setting": "[1]; 0.25 ppm, week 20", "result": 4, "unit": "PPM"}, {"measurement": "Concentration of nitrate nitrogen", "setting": "[1]; 0.50 ppm, week 0", "result": 19, "unit": "PPM"}, {"measurement": "Recovery of Ammonium Nitrogen", "setting": "[1]; 0.50 ppm, week 0", "result": 194, "unit": "PPM"}, {"measurement": "Concentration of nitrate nitrogen", "setting": "[1]; 0.50 ppm, week 1", "result": 22, "unit": "PPM"}, {"measurement": "Recovery of Ammonium Nitrogen", "setting": "[1]; 0.50 ppm, week 1", "result": 167, "unit": "PPM"}, {"measurement": "Concentration of nitrate nitrogen", "setting": "[1]; 0.50 ppm, week 2", "result": 21, "unit": "PPM"}, {"measurement": "Recovery of Ammonium Nitrogen", "setting": "[1]; 0.50 ppm, week 2", "result": 185, "unit": "PPM"}, {"measurement": "Concentration of nitrate nitrogen", "setting": "[1]; 0.50 ppm, week 4", "result": 18, "unit": "PPM"}, {"measurement": "Recovery of Ammonium Nitrogen", "setting": "[1]; 0.50 ppm, week 4", "result": 170, "unit": "PPM"}, {"measurement": "Concentration of nitrate nitrogen", "setting": "[1]; 0.50 ppm, week 7", "result": 18, "unit": "PPM"}, {"measurement": "Recovery of Ammonium Nitrogen", "setting": "[1]; 0.50 ppm, week 7", "result": 197, "unit": "PPM"}, {"measurement": "Concentration of nitrate nitrogen", "setting": "[1]; 0.50 ppm, week 9", "result": 26, "unit": "PPM"}, {"measurement": "Recovery of Ammonium Nitrogen", "setting": "[1]; 0.50 ppm, week 9", "result": 196, "unit": "PPM"}, {"measurement": "Concentration of nitrate nitrogen", "setting": "[1]; 0.50 ppm, week 12", "result": 39, "unit": "PPM"}, {"measurement": "Recovery of Ammonium Nitrogen", "setting": "[1]; 0.50 ppm, week 12", "result": 191, "unit": "PPM"}, {"measurement": "Concentration of nitrate nitrogen", "setting": "[1]; 0.50 ppm, week 16", "result": 28, "unit": "PPM"}, {"measurement": "Recovery of Ammonium Nitrogen", "setting": "[1]; 0.50 ppm, week 16", "result": 205, "unit": "PPM"}, {"measurement": "Concentration of nitrate nitrogen", "setting": "[1]; 0.50 ppm, week 20", "result": 45, "unit": "PPM"}, {"measurement": "Recovery of Ammonium Nitrogen", "setting": "[1]; 0.50 ppm, week 20", "result": 176, "unit": "PPM"}, {"measurement": "Effectiveness as nitrification inhibitor, in words", "setting": "[1]; 20 weeks study", "result": "second most effective inhibitor"}, {"measurement": "Concentration of nitrite nitrogen", "setting": "[2]; 0.10 ppm, week 0", "result": 7, "unit": "ppm"}, {"measurement": "Concentration of nitrite nitrogen", "setting": "[2]; 0.10 ppm, week 1", "result": 5, "unit": "ppm"}, {"measurement": "Concentration of nitrite nitrogen", "setting": "[2]; 0.10 ppm, week 2", "result": 7, "unit": "ppm"}, {"measurement": "Concentration of nitrite nitrogen", "setting": "[2]; 0.10 ppm, week 4", "result": 6, "unit": "ppm"}, {"measurement": "Concentration of nitrite nitrogen", "setting": "[2]; 0.10 ppm, week 7", "result": -4, "unit": "ppm"}, {"measurement": "Concentration of nitrite nitrogen", "setting": "[2]; 0.10 ppm, week 9", "result": 25, "unit": "ppm"}, {"measurement": "Concentration of nitrite nitrogen", "setting": "[2]; 0.10 ppm, week 12", "result": 7, "unit": "ppm"}, {"measurement": "Concentration of nitrite nitrogen", "setting": "[2]; 0.10 ppm, week 16", "result": 7, "unit": "ppm"}, {"measurement": "Concentration of nitrite nitrogen", "setting": "[2]; 0.10 ppm, week 20", "result": 11, "unit": "ppm"}, {"measurement": "Concentration of nitrite nitrogen", "setting": "[2]; 0.25 ppm, week 0", "result": 8, "unit": "ppm"}, {"measurement": "Concentration of nitrite nitrogen", "setting": "[2]; 0.25 ppm, week 1", "result": 5, "unit": "ppm"}, {"measurement": "Concentration of nitrite nitrogen", "setting": "[2]; 0.25 ppm, week 2", "result": 3, "unit": "ppm"}, {"measurement": "Concentration of nitrite nitrogen", "setting": "[2]; 0.25 ppm, week 4", "result": 7, "unit": "ppm"}, {"measurement": "Concentration of nitrite nitrogen", "setting": "[2]; 0.25 ppm, week 7", "result": -1, "unit": "ppm"}, {"measurement": "Concentration of nitrite nitrogen", "setting": "[2]; 0.25 ppm, week 9", "result": 7, "unit": "ppm"}, {"measurement": "Concentration of nitrite nitrogen", "setting": "[2]; 0.25 ppm, week 12", "result": 9, "unit": "ppm"}, {"measurement": "Concentration of nitrite nitrogen", "setting": "[2]; 0.25 ppm, week 16", "result": 2, "unit": "ppm"}, {"measurement": "Concentration of nitrite nitrogen", "setting": "[2]; 0.25 ppm, week 20", "result": 47, "unit": "ppm"}, {"measurement": "Concentration of nitrite nitrogen", "setting": "[2]; 0.50 ppm, week 0", "result": 9, "unit": "ppm"}, {"measurement": "Concentration of nitrite nitrogen", "setting": "[2]; 0.50 ppm, week 1", "result": 3, "unit": "ppm"}, {"measurement": "Concentration of nitrite nitrogen", "setting": "[2]; 0.50 ppm, week 2", "result": 3, "unit": "ppm"}, {"measurement": "Concentration of nitrite nitrogen", "setting": "[2]; 0.50 ppm, week 4", "result": 14, "unit": "ppm"}, {"measurement": "Concentration of nitrite nitrogen", "setting": "[2]; 0.50 ppm, week 7", "result": 4, "unit": "ppm"}, {"measurement": "Concentration of nitrite nitrogen", "setting": "[2]; 0.50 ppm, week 9", "result": -1, "unit": "ppm"}, {"measurement": "Concentration of nitrite nitrogen", "setting": "[2]; 0.50 ppm, week 12", "result": 1, "unit": "ppm"}, {"measurement": "Concentration of nitrite nitrogen", "setting": "[2]; 0.50 ppm, week 16", "result": 8, "unit": "ppm"}, {"measurement": "Concentration of nitrite nitrogen", "setting": "[2]; 0.50 ppm, week 20", "result": 14, "unit": "ppm"}]}
